We go through five compounds from patent US8367713B2, “Inhibition and dispersion of bacterial biofilms with imidazole-triazole derivatives” (North Carolina State University, priority 2008, dated 2013).

Assay [1] relates to E. coli. Kind of assay: Biofilm inhibition at 100 μM, E. coli. The note with it: Escherichia coli. The class given is cell-based. The procedure:
Procedure to Determine the Inhibitory Effect of Test Compounds on E. faecium, MRSA, S. epidermidis, PAO1, PA14, E. Coli and MDRAB Biofilm Formation: Inhibition assays were performed by taking an overnight culture of bacterial strain and subculturing it at an OD600 of 0.01 into the necessary media (brain heart infusion for E. faecium, tryptic soy broth with a 0.5% glucose supplement (TSBG) for MRSA, Luria-Bertani (LB) media for MDRAB, Luria-Bertani media without NaCl (LBNS) for PAO1 and PA14, Luria-Bertani (LB) media for E. coli and tryptic soy broth with a 0.5% glucose supplement and a 3.0% NaCl supplement (TGN) for S. epidermidis. Stock solutions of predetermined concentrations of the test compound were then made in the necessary media. These stock solutions were aliquoted (100 μL) into the wells of the 96-well PVC microtiter plate. Sample plates were then wrapped in GLAD Press n′ Seal® followed by an incubation under stationary conditions for 24 h at 37° C. After incubation, the media was discarded from the wells and the plates were washed thoroughly with water. Plates were then stained with 100 μL of 0.1% solution of crystal violet (CV) and then incubated at ambient temperature for 30 min. […] Biofilm inhibition was quantitated by measuring the OD540 of each well in which a negative control lane wherein no biofilm was formed served as a background and was subtracted out. […]

Assay [2] concerns MRSA. Kind of assay: Biofilm inhibition at 100 μM, MRSA. Format: cell-based. The note with it: Staphylococcus aureus, read-out: MRSA % Inhibition. The method, then: Procedure to Determine the Inhibitory Effect of Test Compounds on E. faecium, MRSA, S. epidermidis, PAO1, PA14, E. Coli and MDRAB Biofilm Formation: Inhibition assays were performed by taking an overnight culture of bacterial strain and subculturing it at an OD600 of 0.01 into the necessary media (brain heart infusion for E. faecium, tryptic soy broth with a 0.5% glucose supplement (TSBG) for MRSA, Luria-Bertani (LB) media for MDRAB, Luria-Bertani media without NaCl (LBNS) for PAO1 and PA14, Luria-Bertani (LB) media for E. coli and tryptic soy broth with a 0.5% glucose supplement and a 3.0% NaCl supplement (TGN) for S. epidermidis. Stock solutions of predetermined concentrations of the test compound were then made in the necessary media. These stock solutions were aliquoted (100 μL) into the wells of the 96-well PVC microtiter plate. Sample plates were then wrapped in GLAD Press n′ Seal® followed by an incubation under stationary conditions for 24 h at 37° C. After incubation, the media was discarded from the wells and the plates were washed thoroughly with water. Plates were then stained with 100 μL of 0.1% solution of crystal violet (CV) and then incubated at ambient temperature for 30 min. Plates were washed with water again and the remaining stain was solubilized with 200 μL of 95% ethanol. A sample of 125 μL of solubilized CV stain from each well was transferred to the corresponding wells of a polystyrene microtiter dish. Biofilm inhibition was quantitated by measuring the OD540 of each well in which a negative control lane wherein no biofilm was formed served as a background and was subtracted out.
Biofilm inhibition has been tested for the following compounds, each of which was tested at a concentration of 100 μM.

The test system of assay [3] is pre-formed P. aeruginosa PA14 biofilms. The experiment in a line: Static bacterial biofilm dispersion assay, PA14. The class given is cell-based. Particulars: Pseudomonas aeruginosa. The procedure:
(§1) General Static Bacterial Biofilm Dispersion Assay Procedure for A. baumannii, P. aeruginosa and S. aureus: Dispersion assays were performed by taking an overnight culture of bacterial strain and subculturing it at an OD600 of 0.01 into the necessary growth liquid medium. The resulting bacterial suspension was aliquoted (100 μL) into the wells of a 96-well PVC microtiter plate. Plates were then wrapped in GLAD Press n′ Seal® followed by an incubation under stationary conditions at an ambient temperature. After 24 hours, the media was discarded from the wells and the plates were washed thoroughly with tap water. Predetermined concentrations of the compound were then made in the same medium used to initially grow the biofilms and then aliquoted (100 μL) into the wells of the 96-well PVC microtiter plate with the established biofilms. Plates were then wrapped in GLAD Press n′ Seal® and incubated under stationary conditions at 37° C. After 24 hours, the media was discarded from the wells and the plates were washed thoroughly with tap water. Plates were then stained with 100 μL of 0.1% solution of crystal violet (CV) and then incubated at room temperature for 30 minutes. Plates were then washed with tap water again and the remaining stain was solubilized with 200 μL of 95% ethanol. Biofilm dispersion was quantitated by measuring the OD540 for each well by transferring 125 μL of the solubilized CV stain into a polystyrene microtiter dish for analysis.

Assay [4] relates to Staphylococcus aureus biofilm. Kind of assay: Static bacterial biofilm inhibition assay (crystal violet), S. aureus. The class given is cell-based. The procedure:
(§2) General Static Bacterial Biofilm Inhibition Assay Procedure for A. baumannii, P. aeruginosa, B. bronchiseptica and S. aureus: Biofilm inhibition assays were performed by taking an overnight culture of bacterial strain and subculturing it at an OD600 of 0.01 into the necessary growth liquid medium (LB for A. baumannii, LBNS for P. aeruginosa, Stainer Scholte medium that was supplemented with […] of 100× nutrient complex for B. bronchiseptica and TSBG for S. aureus) for the strain. The compound being tested was then added at a predetermined concentration and then aliquoted (100 μL) into the wells of a 96-well PVC microtiter plate (Wells not used for samples are filled with 100 μL of de-ionized water). Plates were then wrapped in GLAD Press n′ Seal® and incubated under stationary conditions at 37° C. After 24 hours, the media was discarded from the wells and the plates were washed thoroughly with tap water. Plates were then stained with 100 μL of 0.1% solution of crystal violet (CV) and then incubated at an ambient temperature for 30 minutes. Sample plates were then washed with tap water again and the remaining stain was solubilized with 200 μl, of 95% ethanol. Biofilm inhibition was quantitated by measuring the OD540 for each well by transferring 125 μL of the solubilized CV stain into a polystyrene microtiter dish for analysis.

Assay [5] has as its system pre-formed B. bronchiseptica Rb50 biofilms. Kind of assay: Static bacterial biofilm dispersion assay, Rb50. The class given is cell-based. Particulars: Bordetella bronchiseptica. The procedure:
as §1
General Static Bacterial Biofilm Dispersion Assay Procedure for B. bronchiseptica: This procedure is identical to the general dispersion procedure described above except that initial biofilm formation in the absence of the test compound was carried out at 37° C.

The test system of assay [6] is P. aeruginosa PAO1 biofilms. The experiment in a line: Static bacterial biofilm inhibition assay (crystal violet), PAO1. The class given is cell-based. The note with it: Pseudomonas aeruginosa. The procedure: (§3) Each 2-AIT conjugate was initially screened at 300 μM for their ability to inhibit P. aeruginosa PAO1 and PA14 biofilms, A. baumannii biofilms and B. bronchiseptica Rb50 biofilms using a crystal violet reporter assay (G. A. O'Toole, R. Kolter, Molecular Microbiology 1998, 2, 295-304). […] This is an order of magnitude increase in activity when compared to DHS (J. J. Richards, R. W. Huigens, T. E. Ballard, A. Basso, J. Cavanagh, C. Melander, Chemical Communications 2008, 14, 1698-1700). […] 6 also dispersed pre-formed A. baumanni biofilms with an EC50 of 400 μM (FIG. 2A).
as §2

Assay [7] has as its system pre-formed P. aeruginosa PAO1 biofilms. Kind of assay: Static bacterial biofilm dispersion assay, PAO1. The note with it: Pseudomonas aeruginosa. Format: cell-based. The method, then:
as §1

Assay [8] concerns pre-formed A. baumannii biofilms. The experiment in a line: Static bacterial biofilm dispersion assay, A. baumannii. Format: cell-based. Particulars: Acinetobacter baumannii. The method, then: as §1
Assay [9] has as its system A. baumannii biofilms. Kind of assay: Static bacterial biofilm inhibition assay (crystal violet), A. baumannii. Format: cell-based, Acinetobacter baumannii. The note with it: Acinetobacter baumannii, read-out: IC50 of biofilm inhibition, A. baumannii. The method, then: as §3, §2
The subject of assay [10] is A. baumannii, PAO1, PA14, Rb50, S. aureus (each bacterial strain). The experiment in a line: Planktonic growth curves and colony counts, each bacterial strain. Format: cell-based. The note with it: each bacterial strain grown in the presence of compound. The method, then:
(§4) The OD600 was recorded at 1, 3, 4, 5, 6 and 24 hours.
(§5) General Colony Count Procedure for A. baumannii, P. aeruginosa, B. bronchiseptica and S. aeureus: Colony counts were performed by incubating either bacterial strain in the presence and absence of the test compound at 37° C. in culture tubes until the sample with the absence of the test compound reached an OD600 of 0.40 from a starting OD600 of 0.01. This typically took three to four hours. Once the OD600 of approximately 0.40 was observed, 100 μL were taken from each culture tube from which serial dilutions were made. Then, 10 μL were removed from each serial dilution and plated out on a square gridded petri-dish followed by 16 hours of incubation at 37° C. period (48 hours for B. bronchiseptica) to grow countable colonies. Viable bacteria were quantified through employment of the track-dilution method (Jett et al., Bio Techniques. 1997, 23, 648-650).

Assay [11] deals with P. aeruginosa PA14 biofilms. The experiment in a line: Static bacterial biofilm inhibition assay (crystal violet), PA14. The class given is cell-based. Particulars: Pseudomonas aeruginosa. The procedure:
as §3, §2

Assay [12] has as its system pre-formed S. aureus biofilms. Kind of assay: Static bacterial biofilm dispersion assay, S. aureus. Format: cell-based. Particulars: Staphylococcus aureus. The procedure: as §1
For assay [13], the system named is B. bronchiseptica Rb50 biofilms. Kind of assay: Static bacterial biofilm inhibition assay (crystal violet), Rb50. The note with it: Bordetella bronchiseptica, RB50BIOFILMS
The class given is cell-based. The procedure:
as §3, §2

Assay [14] concerns A. baumannii planktonic growth. The experiment in a line: Planktonic growth curves and colony counts, A. baumannii. Format: cell-based, Acinetobacter baumannii. The note with it: FIGS. 3A, 4A. The procedure:
as §4, §5

Structures can show the parent of a compound that is named as a salt. Where two headings read alike, the source gives them in different places.

In the case of `CCCCCCCCCCNC(=O)Cn1cc(CCCc2c[nH]c(N)n2)nn1` [2-{4-[3-(2-amino-1H-imidazol-4-yl)-propyl]-[1,2,3]triazol-1-yl}-N-decyl-acetamide hydrochloride], the inhibition at 100 µM amounted to 62.7 ± 0.4% in assay [1] and 99 ± 1% in [2].
For `CCCCCCCCCCCCCCNC(=O)Cn1cc(CCCc2c[nH]c(N)n2)nn1` [2-{4-[3-(2-amino-1H-imidazol-4-yl)-propyl]-[1,2,3]triazol-1-yl}-N-tetradecyl-acetamide hydrochloride], in that order: 35.6 ± 0.6% and 90.8 ± 8%.
Take `C/C(=C\c1ccccc1)Cn1cc(CCCCc2cnc(N)[nH]2)nn1` [Compound 10, 4-{4-[1-(2-Methyl-3-phenyl-allyl)-1H-[1,2,3]triazol-4-yl]-butyl}-1H-imidazol-2-ylamine]: the 50% effective concentration (EC50) amounted to 35 µM in [3]; 59 µM in [5]; 81 µM in assay [7]; 210 µM in assay [8]; 16 µM in assay [12]. Further, the IC50 turned out to be 7000 nM in assay [4]; 15 µM in [6]; 2.8 µM in assay [9]; 4000 nM in [11] (P. aeruginosa PA14); 23 µM in [13]. In addition, in [10], the “bactericidal / microbicidal activity (colony counts and growth curves)” value is “not due to bactericidal activity”.
In the case of `C/C(=C\c1ccccc1)Cn1cc(CCCc2c[nH]c(N)n2)nn1` [Compound 6, 5-{3-[1-(2-Methyl-3-phenyl-allyl)-1H-[1,2,3]triazol-4-yl]-propyl}-1H-imidazol-2-ylamine hydrochloride], the “effect on planktonic growth (growth curves and colony counts)” value in assay [14] is reported as “no effect on planktonic growth”. Besides, the EC50 in assay [8] worked out at 400 µM. The concentration for half-maximal inhibition (IC50) in assay [9] stood at 12 µM.
Consider `C/C(=C\c1ccccc1)Cn1cc(CCCCCc2c[nH]c(N)n2)nn1` [Compound 11, 4-{5-[1-(2-Methyl-3-phenyl-allyl)-1H-[1,2,3]triazol-4-yl]-pentyl}-1H-imidazol-2-ylamine hydrochloride], for which the half-maximal effective concentration (EC50) in assay [3] turned out to be 22 µM; in assay [5], 55 µM; in [7], 11 µM; in assay [8] it was 120 µM; in [12], 2.6 µM. The IC50 in assay [4] (S. aureus, value in nM) turned out to be 810 nM; in assay [6] it was 5.6 µM; in [9], 0.98 µM; in assay [11] (PA14, value in nM) it was 530 nM; in [13], 9.5 µM. Also, the “bactericidal / microbicidal activity (colony counts and growth curves)” value in [10] is reported as “not due to microbicidal activity”.
